# Source: a melting point compilation (Tetko et al.; mined from patent text by program, amines drawn as free bases though some values may be those of a salt)
row,Compound,melting point [°C]
1,O=C(O)[C@H]1CCCN1C(=O)CCS,68 to 70
2,COc1c(C)c(C)c(OC)c(CN2C(=O)[C@H]3CCC[C@H]3Nc3ccccc32)c1C (relative stereo),175 to 176
3,CCCOc1ccc(NC(C)=O)cc1C1=NC(=O)C2=NC=NC2=N1,320 to 323
4,CCOC(=O)c1ccc(-c2cnc3c(c2)N(Cc2ccccc2)CCN3)cc1,178 to 179
5,O=C1Nc2ncccc2C12COc1cc3c(cc12)OCCO3 (stereo not drawn),> 250
6,N#Cc1ccc(C2C(=O)N(CC3CC3)Cc3cncn32)cc1 (stereo not drawn),146 to 147
7,COc1ccc(C(=O)CBr)cc1C12CC3CC(CC(C3)C1)C2,140 to 141
8,COc1nc(-c2c(F)cccc2F)nn1-c1ccccc1C(F)(F)F,118 to 119
9,CCCCOCCOc1ccc(-c2ccc(N3CCCC3)c(C(C)=CC(=O)OCC)c2)cc1,81 to 82
10,CC(=O)SCC(Cc1ccccc1)C(=O)NN1CCSCC1 (stereo not drawn),138
11,Cc1sc2c(c1C)C(c1ccc(Cl)cc1)=NC(CC(=O)NCc1cccnc1)c1nnc(C)n1-2 (stereo not drawn),180 to 183
12,O=C(O)C1CSC(=S)N1 (stereo not drawn),183 to 184
13,O=c1[nH]c2ccccc2n1C/C=C/CCl,120
14,CCCn1c(C)c2c(c1C)C(=O)C(C)=C(C)C2=O,165 to 167
15,CCCCCNC(=O)c1ccc(Cl)nn1,98 to 101
16,CCN(CC)CC1CCCCN1CC(=O)N1c2nc(C)cc(C)c2NC(=O)c2cccc(C)c21 (stereo not drawn),213 to 215
17,CS(=O)(=O)c1ccc(C(Cc2ccccc2)C(=O)Nc2nc3ccccc3o2)cc1 (stereo not drawn),118 to 119
18,CCc1nn(C2CCC2)c2cc(C(=O)Nc3c(Cl)cncc3Cl)ccc12,166 to 168
19,CC(C)(C)OC(=O)CN(C(=O)CN1C(=O)c2ccccc2C1=O)c1ccccc1Oc1ccccc1,145

row,Compound,melting point [°C]
1,CC(C)n1c(=O)c2c(-c3cc(C4CC4)on3)ncn2c2ccccc21,247 to 249
2,CC(C)(C)ON=C1CCC(NC(=O)Oc2ccc([N+](=O)[O-])cc2)CC1 (stereo not drawn),132
3,CS(=O)(=O)c1ccc(Oc2ccc([N+](=O)[O-])c(OCc3ccccc3)c2)cc1,142 to 143
4,CC(=O)SCC(C(=O)Nc1oc(CCC(=O)O)c2ccccc12)C(F)(F)F (stereo not drawn),139 to 140
5,CN(C)C(=O)C1=NO[C@@H](c2ccccc2)C1,59 to 61
6,CC(=O)C(c1ccc(Cl)cc1)c1c(Cl)cc(-n2ncc(=O)[nH]c2=O)cc1Cl (stereo not drawn),208
7,CN1CCN(c2ccc(N)cc2C(F)(F)F)CC1,121 to 123
8,COc1ccc(C(=O)N2c3ccccc3C(n3c4ccccc4c4ccccc43)CC2CCCCCN(C)C(C)=O)cc1OC (stereo not drawn),173 to 175
9,CCOC(Cc1ccc(OCCN2c3ccccc3Oc3ccccc32)cc1)C(=O)OC (stereo not drawn),88 to 90
10,OCCc1ccc(COc2cccc(-c3c(-c4ccccc4)cnc4c(C(F)(F)F)cccc34)c2)cc1,50
11,CCC12CCC3C4CCC(=O)C=C4C=CC3C1CCC2OC(C)=O (stereo not drawn),163 to 177
12,O=C(Nc1nccs1)c1cn(CC2CCCC2)c2cc(Cl)ccc12,117 to 119
13,Cc1cccc2c1C(=O)N(C)Cc1c(C#CC(C)(C)O)ncn1-2,165 to 167
14,CC(=O)C(C#N)c1ccc(F)c(F)c1 (stereo not drawn),147 to 152
15,CCN(CC)Cc1ccc(-c2cccc(-c3ccnc4c(C(=O)c5cccs5)cnn34)c2)cc1,144 to 146
16,Cc1oc(-c2ccccc2F)nc1CCOc1ccc(CN(O)C(N)=O)cc1,151 to 152
17,Cc1ccc(CC(CS)C(=O)Nc2cccc(C(=O)O)c2C)cc1 (stereo not drawn),194 to 196
18,Cc1ccc(S(=O)(=O)N(C)c2ccc(Br)cc2[N+](=O)[O-])cc1,82.5 to 83.5
19,CC(Cc1cc(-c2ccccc2)nc2ccccc12)C(=O)N(C)C1CCCCC1 (stereo not drawn),160

row,Compound,melting point [°C]
1,Cn1c(-c2ccc(Cl)cc2)cc2cc(C(=O)O)ccc21,> 260
2,CC(C)(C)Nc1c([N+](=O)[O-])cc([N+](=O)[O-])c2nc(C(F)(F)F)[nH]c12,177 to 188
3,CCCCOc1ccc(OCC2(O)CN3CCC2CC3)cc1 (stereo not drawn),110 to 112
4,CCNC(=O)CNC(=S)c1cccnc1,136 to 138
5,Cn1c(=O)c2c(Br)cccc2n2cnc(-c3noc(C4CC4)n3)c12,207
6,c1ccc(CSc2nc3ncccn3n2)cc1,104 to 106
7,Cc1csc2nc(-c3ccc(C(=O)O)cc3)nc(NCc3ccccc3)c12,270
8,CN(C)c1ccc(-c2cc(N(C(=O)OC(C)(C)C)C(=O)OC(C)(C)C)nn2C(=O)OC(C)(C)C)cc1,64 to 65
9,CN(C)CCCCOc1ccc2c(=O)cc(-c3ccccc3)oc2c1,95 to 96
10,O=CNC[C@H](O)C(=O)OC=O,140 to 142
11,O=C1Nc2cc(C(F)(F)F)ccc2Oc2ccccc21,246 to 247
12,CCN(CC)CCOc1ccc(Nc2nccc(-c3ccncc3)n2)cc1,85 to 87
13,COc1ccc(C2=NN(C3CCSCC3)C(=O)[C@H]3CC=CC[C@@H]23)cc1OC (relative stereo),140 to 141
14,O=C1CCC(CN2C(=O)C3(COc4cc5c(cc43)OCO5)c3ccccc32)N1 (stereo not drawn),121 to 130
15,COCC1COc2cc3ncnc(Nc4ccc(F)c(Cl)c4)c3cc2O1 (stereo not drawn),260 to 285
16,CCc1nn(CC)c(C(N)=O)c1Cc1ccc2oc(-c3ccccc3C(=O)O)c(Br)c2c1,171 to 172
17,CSC(=N[N+](=O)[O-])N(C)SC(Cl)(Cl)Cl,75 to 78
18,O=C(O)Cc1ccc(Cn2cc(C(=O)C(=O)NC3=CC(=O)OC3)c3ccccc32)cc1,> 270

# More lines, now with the values ahead:
row,melting point [°C],Compound
1,224 to 226,COc1cc(Nc2c(C#N)cnc3cc(-c4csc(CN5CCN(C)CC5)c4)sc23)c(Cl)cc1Cl
2,106 to 108,CS(C)=Nc1nccnc1Cl
3,146 to 148,CC(C)(C)OC(=O)NC1C=Cc2ccccc2CC1 (stereo not drawn)
4,156 to 157,Cn1nccc1NC(=O)N1CCN(c2nc(-c3ccccc3F)cs2)CC1
5,83.6,CCCCC[C@H]1CC[C@H](CCc2ccc(CCC)c(C#N)c2C#N)CC1
6,101 to 102,Cc1coc2c1C(=O)CC(c1ccc(F)cc1F)C2 (stereo not drawn)
7,114 to 118,O=C1Nc2cc(-n3nnn(CCCF)c3=O)c(F)cc2CC1Cl (stereo not drawn)
8,188,CCOc1nc(N)nc(-c2ccccc2)c1-c1ccc(=O)n(C(C)C)n1
9,246 to 247,CCCN1C(=O)N2CCN=C2c2c1nc(C1CCCC1)n2C
10,150 to 152,CC(C)Cc1ccc(C(C)C(=O)NCCN(O)C(N)=O)cc1 (stereo not drawn)
11,119 to 121,O=C(CCCCCNC(=O)C(=O)c1cn2c3c(cccc13)CCC2)NOCc1ccccc1
12,194 to 195,COc1ccc(CCOc2ccnc(-c3cccc(C(=O)O)c3)c2)cc1OC
13,157 to 160,COc1ccc(-c2ccc(C(CCC(=O)O)=NO)cc2)cc1
14,124,O=[N+]([O-])c1cc(CO)c(CO)cc1Oc1ccc(F)cc1F
15,120,CC(C)N(c1ccc(C(=O)Oc2ccccc2)c(Cl)c1)S(=O)(=O)c1ccccc1
16,94 to 96,Cc1ccc(-c2ccc3c(c2)C=C(CN2CCC(NC(=O)C(F)(F)F)CC2)CCO3)cc1
17,100,CCCC(=O)NCC1CCc2c(OC)ccc3cccc1c23 (stereo not drawn)
18,126 to 128,Cn1ccc(-n2ccnc2S)n1
19,260 to 261,CC1CC(=O)NN=C1c1ccc2[nH]c(CCCN3C(=O)c4ccccc4C3=O)nc2c1 (stereo not drawn)
20,50 to 51,Cc1cc(-c2oncc2CCCO)ccc1Cl
21,68 to 70,Cc1cc(Oc2ccc(C(F)(F)F)cc2[N+](=O)[O-])nn1C(=O)OC(C)(C)C

row,melting point [°C],Compound
1,114 to 115,C=CSc1nc(-c2ccc(OC)cc2)c(-c2ccc(OC)cc2)[nH]1
2,112 to 113,CC1(C)OC(CS(=O)(=O)c2ccc(Cl)cc2)=CC1=O
3,228 to 230,Cc1cc(NC(=O)CCC(=O)O)ccc1-n1c(C)nc2ccccc2c1=O
4,159 to 161,CCc1ccc(C(=NO)c2ccc(Cl)cc2)c(O)c1
5,202 to 204,CC1(C)OCC(CCn2cnc3c(N)nc(N)nc32)CO1
6,156 to 157,CCCNc1nc(C)nc2c1nnn2-c1ccc(C(C)C)cc1Br
7,154 to 155,COC(=O)c1cc(-c2nccs2)cc2c1OC(c1ccccc1)(c1ccccc1)O2
8,87 to 89,CCOC(=O)OC1=C(c2c(C)cc(C)cc2C)C(=O)SC12CCN(OC)CC2
9,141 to 143,O=C(O)C(=O)c1ccc(OCC(=O)c2cccc3ccccc23)cc1
10,203 to 204,O=C(CCl)Nc1ccc2c(c1NC(=O)c1ccccc1)C(=O)c1ccccc1C2=O
11,257 to 258,CC1CCn2c(c(-c3ccccc3)c3cccnc3c2=O)C(=O)N(Cc2cc(C(F)(F)F)cc(C(F)(F)F)c2)C1 (racemic)
12,138,COc1ccc(C2CCCCC2)cc1-c1csc(NC(=O)N2CCN(C3CCN(S(=O)(=O)C4CC4)CC3)CC2)n1
13,80 to 81,COP(=O)(Cc1ccc2ccccc2c1)OC
14,222 to 224,Cn1c(COc2nc(CCC(=O)O)oc2-c2ccccc2)nc2ccccc21
15,140,COc1ccc(-c2cc(=O)n(CCc3ccccc3)nc2-c2ccc(OC)cc2)cc1
16,98 to 100,CC(C)n1nc(C(Br)C(=O)c2ccccc2)ccc1=O (stereo not drawn)
17,225 to 228,COc1ccc(S(=O)(=O)N2C(=O)[C@@](c3ccccc3OC)(N3C[C@H](OC(=O)CCC(=O)O)C[C@H]3C(=O)N(C)C)c3cc(Cl)ccc32)c(OC)c1
18,142 to 144,Cc1oc(-c2ccccc2)nc1CCOc1ccc(CCC(=O)O)cc1
19,64 to 65,COc1ccc(-c2nc(CCl)co2)s1
20,168 to 170,CC(=O)OC1CCC2(C)C(=CCC3C2CCC2(C)C(C(C)CC(F)(F)CC(C)(C)O)CCC32)C1 (stereo not drawn)
21,128 to 129,CCCn1nc2c(-c3ccccc3)cccc2c1-c1ccc(OC)cc1
